System: DMS 114 tumor spheroids, viability % test/control
Assay: Anticancer human tumor DMS 114 cell line growth inhibition;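 also: spheroids exposed to compounds for 7 days before read-out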;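 as to viability, T/C: luminescence used as a proxy for viable cells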
Conditions: spheroids with HUVEC and MSC; for IC50: curve of first compound; for viability, T/C: stronger effect = lower value
In short: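 Complex spheroids of malignant cells with endothelial cells and mesenchymal stem cells; agents alone or combined, from near clinical Cmax (or 10 microM if unknown) down in half-log steps, 0.25% DMSO final.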

[1] = second compound 1 µM, first compound 0.0316 µM
[2] = second compound 1 µM, first compound 0.1 µM
[3] = second compound 1 µM, first compound 0.316 µM
[4] = second compound 1 µM, first compound 1 µM
[5] = second compound 1 µM, first compound 3.16 µM
[6] = second compound 1 µM, first compound 10 µM
[7] = second compound 3.16 µM, first compound 0.0316 µM
[8] = second compound 3.16 µM, first compound 0.1 µM
[9] = second compound 3.16 µM, first compound 0.316 µM
[10] = second compound 3.16 µM, first compound 1 µM
[11] = second compound 3.16 µM, first compound 3.16 µM
[12] = second compound 3.16 µM, first compound 10 µM
[13] = second compound 10 µM, first compound 0.0316 µM
[14] = second compound 10 µM, first compound 0.1 µM
[15] = second compound 10 µM, first compound 0.316 µM
[16] = second compound 10 µM, first compound 1 µM
[17] = second compound 10 µM, first compound 3.16 µM
[18] = second compound 10 µM, first compound 10 µM
[19] = second compound 31.6 µM, first compound 0.0316 µM
[20] = second compound 31.6 µM, first compound 0.1 µM
[21] = second compound 31.6 µM, first compound 0.316 µM
[22] = second compound 31.6 µM, first compound 1 µM
[23] = second compound 31.6 µM, first compound 3.16 µM
[24] = second compound 31.6 µM, first compound 10 µM
[25] = second compound 100 µM, first compound 0.0316 µM
[26] = second compound 100 µM, first compound 0.1 µM
[27] = second compound 100 µM, first compound 0.316 µM
[28] = second compound 100 µM, first compound 1 µM
[29] = second compound 100 µM, first compound 3.16 µM
[30] = second compound 100 µM, first compound 10 µM

Row | Compound | IC50 (second compound 1 µM) [µM] | IC50 (second compound 3.16 µM) [µM] | IC50 (second compound 10 µM) [µM] | IC50 (second compound 31.6 µM) [µM] | IC50 (second compound 100 µM) [µM] | viability, T/C [1] [%] | viability, T/C [2] [%] | viability, T/C [3] [%] | viability, T/C [4] [%] | viability, T/C [5] [%] | viability, T/C [6] [%] | viability, T/C [7] [%] | viability, T/C [8] [%] | viability, T/C [9] [%] | viability, T/C [10] [%] | viability, T/C [11] [%] | viability, T/C [12] [%] | viability, T/C [13] [%] | viability, T/C [14] [%] | viability, T/C [15] [%] | further results
1 | CC(C)n1c(=O)n(C)c2cnc3cc(F)c(-c4ccc(OCCCN5CCCCC5)nc4)cc3c21 + Cn1nnc2c(C(N)=O)ncn2c1=O | 6.43 | 7.31 | 6.55 | 6.08 | 4.32 | 95.4 | 100 | 101 | 98.9 | 75.4 | 34.2 | 104 | 105 | 104 | 106 | 94.8 | 32.9 | 103 | 111 | 105 | viability, T/C [16]: 93.5%; viability, T/C [17]: 79%; viability, T/C [18]: 33.4%; viability, T/C [19]: 99.6%; viability, T/C [20]: 96%; viability, T/C [21]: 101%; viability, T/C [22]: 95.3%; viability, T/C [23]: 71.2%; viability, T/C [24]: 33.8%; viability, T/C [25]: 85.8%; viability, T/C [26]: 81.6%; viability, T/C [27]: 82.9%; viability, T/C [28]: 84.8%; viability, T/C [29]: 58.8%; viability, T/C [30]: 26.5%
2 | COc1ccc([C@@H](O)c2cc(-c3ncnc4cc(N5CCOCC5)ccc34)c(F)cc2Cl)nn1 + Cn1nnc2c(C(N)=O)ncn2c1=O | 8.43 | > 10 | 9.93 | 8.47 | 5.87 | 101 | 103 | 99.3 | 114 | 94.8 | 42.3 | 107 | 109 | 102 | 117 | 95.6 | 50.5 | 100 | 108 | 114 | viability, T/C [16]: 106%; viability, T/C [17]: 86.9%; viability, T/C [18]: 49.8%; viability, T/C [19]: 104%; viability, T/C [20]: 95.8%; viability, T/C [21]: 95.8%; viability, T/C [22]: 109%; viability, T/C [23]: 79.8%; viability, T/C [24]: 45%; viability, T/C [25]: 88.8%; viability, T/C [26]: 95.8%; viability, T/C [27]: 95.1%; viability, T/C [28]: 81.4%; viability, T/C [29]: 69.5%; viability, T/C [30]: 34%

Reference: PubChem BioAssay AID1845202 (Molecular Pharmacology Branch, DTP, NCI, 2023)
